Here are results for five compounds from US6723897B2, “Methods for controlling gibberellin levels” (Monsanto Technology, LLC, priority 1998, dated 2004).

Data set [1] has as its system wild-type soybean line A3237. The data set can be described thus: Experiment II second greenhouse test, seed imbibition, wild-type soybean. Type of data set: in vivo, Glycine max. The settings on record: seeds imbibed 6 hours. The protocol:
(The compounds are tested in Experiment I at only one concentration, i.e., 0.25 mg/ml). Test tubes contained […] of ethanol solution per tube. Final volumes are made up to 30 ml with deionized water. After shaking, the treatment solutions (15 ml each) are transferred to each of two 50 ml test tubes. […] Twenty seeds are used in each treatment. Dry seed, ethanol/water-imbibed seed (1% ethanol in water, v/v), and water-imbibed seeds are included as controls. Seeds are imbibed for 6 hours in the test solutions, then planted in bread pans containing Metromix 350 (The Scotts Company, Marysville, Ohio), and covered with 0.5″ Metro-mix. Covered pans are transferred to the greenhouse and subirrigated. Illumination is at a light intensity of 300-400 μmolm^−2s^−1 photosynthetic photon flux; 16 hours light/8 hours dark. Subsequent waterings are also through sub-irrigation until the test is terminated three weeks later. Observations included the number of dwarf, intermediate, and tall plants; plant height; uniformity of rescue; and any visual effects. Digital photographs are also taken.

The subject of data set [2] is wild-type soybeans (line A3237). As to the kind of experiment: Summary of first two greenhouse experiments, elongation of wild-type soybeans. How it is done: Compounds are first prepared as 25 mg/ml solutions in ethanol as described above, and then diluted into 40 ml of water to prepare the final 0.25 mg/ml treatment solutions. Visual observations on solubilities (milky, clear, etc.) of the treatment solutions are noted. The treatment solutions are divided into two 20 ml portions, each in 50 ml plastic centrifuge tubes. In addition to treating seeds with solutions containing the test compounds, untreated seeds and seeds imbibed in ethanol-water solution (300 μl ethanol in 30 mls of water) are also included in this experiment as controls. In the latter case, 20 seeds are imbibed in 30 mls of solution for six hours.
Two soybean varieties are selected for testing: constitutively GA-deficient transgenic dwarf soybean line 719 (plasmid pMON29801, constitutive FMV promoter/asCPScc; which is a mixture of 719−2 and 719+17), and A3237, the wild-type parent material. […] After imbibition, seeds are removed from the test tubes, placed on wax paper to dry, and planted in bread pans containing farm soil amended with fertilizer at 20 seeds/pan. Seeds are covered with 0.5″ of vermiculite. Pans are transferred to the greenhouse, which had day/night temperatures of 86/68° F. (30/20° C.), and subirrigated. Illumination is at a light intensity of 300-400 μmolm^−2s^−1 photosynthetic photon flux; 16 hours light/8 hours dark. Subsequent waterings are also through sub-irrigation until the test is terminated three weeks later. Observations included the number of dwarf, intermediate, and tall plants; plant height; uniformity of rescue; and any visual effects.
All compounds are tested at final concentrations of 0.25, 0.025, and 0.0025 mg/ml except for GA9, which is tested at 0.125, 0.0125, and 0.00125 mg/ml. (The compounds are tested in Experiment I at only one concentration, i.e., 0.25 mg/ml). Test tubes contained […] of ethanol solution per tube. Final volumes are made up to 30 ml with deionized water. After shaking, the treatment solutions (15 ml each) are transferred to each of two 50 ml test tubes. Treatments 1 to 27 are performed on wild-type line A3237; treatments 28 to 54 are performed on constitutively GA-deficient transgenic dwarf soybean line 719 (a mixture of 719−2 and 719+17). Twenty seeds are used in each treatment. Dry seed, ethanol/water-imbibed seed (1% ethanol in water, v/v), and water-imbibed seeds are included as controls. Seeds are imbibed for 6 hours in the test solutions, then planted in bread pans containing Metromix 350 (The Scotts Company, Marysville, Ohio), and covered with 0.5″ Metro-mix. Covered pans are transferred to the greenhouse and subirrigated. Illumination is at a light intensity of 300-400 μmolm^−2s^−1 photosynthetic photon flux; 16 hours light/8 hours dark. Subsequent waterings are also through sub-irrigation until the test is terminated three weeks later. Observations included the number of dwarf, intermediate, and tall plants; plant height; uniformity of rescue; and any visual effects. Digital photographs are also taken.

Data set [3] deals with wild-type soybean line A4922. As to the kind of experiment: Field trial of seed coating application rates, wild-type soybean. The protocol: GA3, GA3-3-acetate, GA5, GA9, and GA12 are evaluated in further field trials. […] The objectives of these tests are: 1) to determine if seed coatings, as compared to imbibition, of GA compounds facilitate rescue of constitutively GA-deficient transgenic dwarf soybeans (transgenic lines 719−2 plus 719+17) without causing elongation of wild-type soybeans (line A4922), and 2) to determine the seed treatment rate ranges for each of the selected GA compounds that would provide rescue of constitutively GA-deficient transgenic dwarf soybeans (transgenic lines 719−2 plus 719+17) without causing elongation of wild-type soybeans (line A4922).
Seeds are treated with GA3, GA5, GA9, GA12, and GA3-3-acetate at rates of 0, 0.1, 1, 10, and 100 μg/seed. These GA compounds are applied to the seeds using a Hege 11 seed treater (Hans-Ulrich Hege GmbH & Co., Waldenburg, Germany); 100% acetone is used as the carrier solvent. The amount of liquid introduced into the seed treater is six fluid ounces/100 lbs seed rate. In addition, GA12 is tested at 50 μg/seed. The untreated control (UTC) consisted of dry, untreated seeds. Seeds of constitutively GA-deficient transgenic dwarf soybean line 719 and wild-type A4922 are sown in both light and heavy soil. The planting depth is 0.5 to 1 inch (1.27 to 2.54 cm); watering is via drip irrigation. The experiment is carried out in three repetitions, using 25 seeds/plot (one five foot (152.4 cm) long row) for line 719, and 75 seeds/plot (two eight foot (243.8 cm) rows) for line A4922. Observations included total emergence, number of dwarfs not rescued, uniformity in plant height, average plant height, visual notes, and digital photos.
In all the experiments reported in Tables 17-24, treatments are replicated three times in a randomized block design. Data are analyzed using LSD (least significant difference) 0.05 probability using the PRM 5.0 Statistical Analysis Program (SAS Institute, North Carolina).

Data set [4] deals with AX5/antisense CPScc soybean line 234 (R3). As to the kind of experiment: Hilum seed treatment of epicotyl-intensive GA-deficient soybean, height (FIG. 43). It is filed as in vivo, Glycine max. The settings on record: 10 DAP; for restoration of height of line 234 soybeans: hypocotyl and epicotyl elongation, hypocotyl to epicotyl ratio not maintained; for response of line 234 height: seed treatment rates between 0.1 and 1 μg/seed.
Procedure: The purpose of this study is to evaluate the ability of four GA compounds, i.e., GA9, GA5, GA3-3-acetate, and GA12, to restore normal growth in AX5/antisense CPScc soybean lines when applied as a seed treatment.
Line 46 plants are R2; Line 234 plants are R3.
The GA compounds are dissolved in ethanol and applied to the hilum of dry seeds as not more than 10 μl droplets with a syringe. If multiple applications are made to seeds, the previous application is allowed to dry before a subsequent application is made.
Seeds are sown 1 inch deep in commercial potting soil (Metromix 200) in 4-inch plastic pots and placed in a greenhouse set for 12 hours artificial light and a temperature regime of 85° F. (29° C.) day and 75° F. night (24° C.). Pots are watered as necessary by overhead hand watering. Hypocotyl and epicotyl measurements are made for each plant at various stages of plant growth.
The lower dashed horizontal line represents the total height of untreated AX5 line 234 soybeans. The upper dashed horizontal line represents the total height of untreated wild-type A4922 soybeans. Measurements are made 10 days after planting.

Setting [5] is: 0.0025 mg/ml solution (ethanol-water).
[6] abbreviates: 0.025 mg/ml solution (ethanol-water).
The mark [7] stands for this setting: 0.25 mg/ml solution (ethanol-water).

For `C=C1C[C@]23C[C@H]1CC[C@H]2[C@]1(C)CCC[C@@](C)(C(=O)O)[C@H]1[C@@H]3C(=O)O` [GA12], the “Significant Visual Observations on Line A3237” value (“Significant Visual Observations” for short) in data set [1] (0.25 mg/ml) is recorded as “Short plants”. Also, the “Elongation of wild-type soybeans” value was 0 in data set [2] (setting [5]), “−” in data set [2] (setting [6]) and “−” in data set [2] (setting [7]). Also, the “A4922 Height, cm, Heavy soil” value in data set [3] (0.1 μg compound per seed) came to 5.3 fg·cm; in data set [3] (1 μg compound per seed) it was 5.7 efg cm; in data set [3] (10 μg compound per seed) it was 5.0 fgh cm; in data set [3] (50 μg compound per seed), 2.7 hi cm; in data set [3] (100 μg compound per seed), 2.3 i cm. The “A4922 Height, cm, Light soil” value worked out at 5.7 f-i cm in data set [3] (0.1 μg compound per seed); 5.0 g-i cm in data set [3] (1 μg compound per seed); 3.7 hij cm in data set [3] (10 μg compound per seed); 3.0 ij cm in data set [3] (50 μg compound per seed); 2.7 J·cm in data set [3] (100 μg compound per seed). The “No. A4922 Emerged, Heavy soil” value in data set [3] (0.1 μg compound per seed) was found to be 24.3 g·days; in data set [3] (1 μg compound per seed), 48.0 ab; in data set [3] (10 μg compound per seed) it was 19.0 fg; in data set [3] (50 μg compound per seed), 40.0 bcd; in data set [3] (100 μg compound per seed), 38.7 bcd. For the same compound, the “No. A4922 Emerged, Light soil” value was 45.7 c-h in data set [3] (0.1 μg compound per seed); 55.7 ab in data set [3] (1 μg compound per seed); 46.3 c-g in data set [3] (10 μg compound per seed); 51.3 bcd in data set [3] (50 μg compound per seed); 53.0 bc in data set [3] (100 μg compound per seed).

In the case of `C=C1C[C@]23C[C@@]1(O)CC[C@H]2[C@@]12C=C[C@H](O)[C@@](C)(C(=O)O1)[C@H]2[C@@H]3C(=O)O` [GA3, gibberellic acid], in data set [1] (0.25 mg/ml), the “Significant Visual Observations” value is given as “Poor emergence”. The “Elongation of wild-type soybeans” value in data set [2] (setting [5]), in data set [2] (setting [6]) and in data set [2] (setting [7]) was “+” each time. Further, the “A4922 Height, cm, Heavy soil” value turned out to be 5.7 efg cm in data set [3] (0.1 μg compound per seed), 6.0 efg cm in data set [3] (1 μg compound per seed), 10.3 cm·days in data set [3] (10 μg compound per seed) and 21.0 a cm in data set [3] (100 μg compound per seed). For the same compound, the “A4922 Height, cm, Light soil” value in data set [3] (0.1 μg compound per seed) was 6.7 fg·cm; in data set [3] (1 μg compound per seed) it was 8.3 ef cm; in data set [3] (10 μg compound per seed), 12.7 cm·days; in data set [3] (100 μg compound per seed) it was 27.0 ab cm. The “No. A4922 Emerged, Heavy soil” value in data set [3] (0.1 μg compound per seed) was 28.0 c-g; in data set [3] (1 μg compound per seed), 1.67e+16 fg; in data set [3] (10 μg compound per seed), 28.7 c-g; in data set [3] (100 μg compound per seed) it was 19.7 efg. The “No. A4922 Emerged, Light soil” value came to 42.7 e-i in data set [3] (0.1 μg compound per seed), 36.3 i in data set [3] (1 μg compound per seed), 39.7 f-j in data set [3] (10 μg compound per seed) and 38.0 hi in data set [3] (100 μg compound per seed). Also, in data set [4], the “restoration of height of line 234 soybeans” value (“restoration” for short) is “restore normal height to line 234 soybeans”. The “response of line 234 height” value in data set [4] is “generally similar response”.

`C=C1C[C@]23C[C@@]1(O)CC[C@H]2[C@@]12C=C[C@H](OC(C)=O)[C@@](C)(C(=O)O1)[C@H]2[C@@H]3C(=O)O` [GA3-3-acetate]: the “Significant Visual Observations” value in data set [1] (0.0025 mg/ml) was “Normal height”. Further, in data set [4], the “restoration” value is listed as “restore normal height to line 234 soybeans” and the “response of line 234 height” value is “generally similar response”.

Take `C=C1C[C@]23C[C@H]1CC[C@H]2[C@@]12CCC[C@@](C)(C(=O)O1)[C@H]2[C@@H]3C(=O)O` [GA9]: the “Significant Visual Observations” value in data set [1] (0.125 mg/ml) is given as “Normal height”. Besides, the “Elongation of wild-type soybeans” value in data set [2] (0.00125 mg/ml solution (ethanol-water)) is “−”; in data set [2] (0.0125 mg/ml solution (ethanol-water)) it was 0; in data set [2] (0.125 mg/ml solution (ethanol-water)) it was 0; in data set [2] (setting [7]), “+”. Moreover, the “A4922 Height, cm, Heavy soil” value came to 5.7 efg cm in data set [3] (0.1 μg compound per seed), 6.3 efg cm in data set [3] (1 μg compound per seed), 6.7 efg cm in data set [3] (10 μg compound per seed) and 10.3 cm·days in data set [3] (100 μg compound per seed). The “A4922 Height, cm, Light soil” value in data set [3] (0.1 μg compound per seed) stood at 5.7 f-i cm; in data set [3] (1 μg compound per seed), 6.3 fgh cm; in data set [3] (10 μg compound per seed), 7.3 fg·cm. For the same compound, the “No. A4922 Emerged, Heavy soil” value in data set [3] (0.1 μg compound per seed) is 41.0 a-d; in data set [3] (1 μg compound per seed), 43.0 a-d; in data set [3] (10 μg compound per seed) it was 26.3 g·days; in data set [3] (100 μg compound per seed), 28.3 c-g. In addition, the “No. A4922 Emerged, Light soil” value in data set [3] (0.1 μg compound per seed) turned out to be 48.3 b-e; in data set [3] (1 μg compound per seed), 46.7 c-g; in data set [3] (10 μg compound per seed), 46.0 c-h; in data set [3] (100 μg compound per seed), 40.0 f-i. The “activity relative to GA3, GA3-3-acetate and GA5” value in data set [4] was “approximately 10 times less active”. In addition, the “restoration” value in data set [4] was “restore normal height to line 234 soybeans”.

As to `C=C1C[C@@]23CC[C@H]4[C@@](C)(CCC[C@@]4(C)C(=O)O)[C@@H]2CC[C@@H]1C3` [kaurenoic acid], the entries for the “Elongation of wild-type soybeans” value in data set [2] (setting [5]), in data set [2] (setting [6]) and in data set [2] (setting [7]) were 0, 0 and “−”, respectively.
